Holding throughout (type): biochemical, bovine
One assay addresses T1, PDE3 (Bos taurus, UniProt A0A3Q1M1E8).
T1 sequence (A0A3Q1M1E8 1-1126): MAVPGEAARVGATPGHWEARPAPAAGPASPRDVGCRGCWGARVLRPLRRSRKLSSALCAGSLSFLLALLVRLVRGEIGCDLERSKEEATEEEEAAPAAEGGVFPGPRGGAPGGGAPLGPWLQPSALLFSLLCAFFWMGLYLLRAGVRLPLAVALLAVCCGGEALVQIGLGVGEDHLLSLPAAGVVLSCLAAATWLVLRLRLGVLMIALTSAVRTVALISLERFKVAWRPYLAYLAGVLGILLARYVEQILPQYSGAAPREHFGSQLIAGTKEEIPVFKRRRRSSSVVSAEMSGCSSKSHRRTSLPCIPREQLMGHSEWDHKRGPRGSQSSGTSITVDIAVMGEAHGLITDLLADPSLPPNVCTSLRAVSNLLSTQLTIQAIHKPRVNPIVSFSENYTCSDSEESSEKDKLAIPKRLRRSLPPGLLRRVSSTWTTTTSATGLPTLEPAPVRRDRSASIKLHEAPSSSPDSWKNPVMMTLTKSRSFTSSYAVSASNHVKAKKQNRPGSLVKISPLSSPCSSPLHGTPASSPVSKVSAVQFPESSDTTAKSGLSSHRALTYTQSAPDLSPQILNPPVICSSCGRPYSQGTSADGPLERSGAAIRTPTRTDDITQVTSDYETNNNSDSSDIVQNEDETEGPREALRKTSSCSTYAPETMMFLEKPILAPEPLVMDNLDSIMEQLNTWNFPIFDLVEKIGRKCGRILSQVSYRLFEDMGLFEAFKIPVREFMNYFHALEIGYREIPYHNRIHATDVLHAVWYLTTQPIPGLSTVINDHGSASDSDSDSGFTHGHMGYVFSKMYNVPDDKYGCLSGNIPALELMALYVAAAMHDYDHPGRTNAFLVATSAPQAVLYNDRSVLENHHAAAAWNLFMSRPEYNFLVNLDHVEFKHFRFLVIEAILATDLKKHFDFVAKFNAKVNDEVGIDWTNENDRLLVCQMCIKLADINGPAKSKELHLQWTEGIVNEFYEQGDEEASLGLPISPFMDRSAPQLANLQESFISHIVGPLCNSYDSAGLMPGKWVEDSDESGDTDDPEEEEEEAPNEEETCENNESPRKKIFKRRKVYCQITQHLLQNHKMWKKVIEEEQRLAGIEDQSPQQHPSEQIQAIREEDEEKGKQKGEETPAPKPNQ
The assay is described as follows: Selectivity: inhibition of PDE3, radioenzymatic phosphodiesterase assay. The conditions noted are these: 10 μM test compound; vascular smooth muscle; read-out: PDE3 percentage inhibition at 10 μM. The procedure: (§1) A 3 g segment of bovine aortic media cut into pieces with scissors was homogenized with an ultra-turrax then a potter glass/glass homogenizer in 7 volumes by weight of buffer A containing a protease inhibitor cocktail (20 mM Tris-HCl, 0.25 M saccharose, 2 mM magnesium acetate, 1 mM dithiothreitol, 5 mM EGTA, 2000 U/ml aprotinin, 10 mg/l leupeptin and 10 mg/l soya trypsic inhibitor). The homogenizate was centrifuged at 105,000 g for 1 hour. The supernatant was loaded on a DEAE-Sephacel column (15 x 1.6 cm) pre-equilibrated with buffer B (buffer A without the saccharose, EGTA and protease inhibitors). The column was washed until there was no detectable absorption at 280 nm, then eluted with a linear gradient of NaCl (0-0.5 M) in buffer B. 3-ml fractions were collected and enzyme activity was determined under the conditions described hereinbelow to localize the different enzymes PDE1, PDE3, PDE4 and PDE5 which were aliquoted and frozen at −80° C. (Lugnier et al., Biochem. Phamacol., 1986, 35: 1746-1751). PDE2 was prepared from bovine endothelial cells by the same methods (Lugnier and Schini, Biochem. Pharmacol., 1990, 39: 75-84).
(§2) Cyclic nucleotide phosphodiesterase activity was determined by a radioenzymatic method using tritium-labelled cyclic GMP or AMP (1 μM) as substrate (Lugnier et al., 1986). ^3H-labelled adenosine or guanosine monophosphate formed by hydrolysis of the radiolabelled cyclic nucleotide was then converted to ^3H-labelled adenosine or guanosine in a second reaction with […] in excess. The nucleoside formed was separated from the nucleotides by anion exchange chromatography. Nucleoside radioactivity was determined by liquid scintillation counting. […]
(§3) The activity of the compounds was evaluated on other phosphodiesterase isoforms, particularly basal state or calmodulin-activated PDEl from vascular smooth muscle, PDE3, PDE4 and PDE5 from vascular smooth muscle.
(§4) The results obtained are presented in Tables 1 and 2 hereinbelow and are expressed as the percentage inhibition of enzymatic activity produced by […] of the test compound.

The subject of the next assay is PDE1. The assay is described as follows: Selectivity: inhibition of PDE1, radioenzymatic phosphodiesterase assay. As to conditions: 10 μM test compound; vascular smooth muscle. As for the experimental part:
as §1, §2, §3, §4

The target of the next assay is T2, PDE5 (Bos taurus, UniProt Q28156).
T2 construct: localize the different enzymes PDE1, PDE3, PDE4 and PDE5 which were aliquoted and frozen; from tissue; host or cells: bovine aortic media (vascular smooth muscle)
Description: Selectivity: inhibition of PDE5, radioenzymatic phosphodiesterase assay. As to conditions: 10 μM test compound; vascular smooth muscle; read-out: PDE5 percentage inhibition at 10 μM. As for the experimental part:
as §1
(§5) Cyclic nucleotide phosphodiesterase activity was determined by a radioenzymatic method using tritium-labelled cyclic GMP or AMP (1 μM) as substrate (Lugnier et al., 1986). ^3H-labelled adenosine or guanosine monophosphate formed by hydrolysis of the radiolabelled cyclic nucleotide was then converted to ^3H-labelled adenosine or guanosine in a second reaction with […] in excess. The nucleoside formed was separated from the nucleotides by anion exchange chromatography. Nucleoside radioactivity was determined by liquid scintillation counting. Enzymatic incubations were carried out under conditions allowing no more than 15% hydrolysis of the substrate; each point was performed in duplicate.
as §3, §4

Another assay has as its target T3, PDE2 (Bos taurus, UniProt P14099).
T3 construct: PDE2 was prepared from bovine endothelial cells by the same methods; endogenous in cells; host or cells: bovine endothelial cells
T3 sequence (P14099 1-921): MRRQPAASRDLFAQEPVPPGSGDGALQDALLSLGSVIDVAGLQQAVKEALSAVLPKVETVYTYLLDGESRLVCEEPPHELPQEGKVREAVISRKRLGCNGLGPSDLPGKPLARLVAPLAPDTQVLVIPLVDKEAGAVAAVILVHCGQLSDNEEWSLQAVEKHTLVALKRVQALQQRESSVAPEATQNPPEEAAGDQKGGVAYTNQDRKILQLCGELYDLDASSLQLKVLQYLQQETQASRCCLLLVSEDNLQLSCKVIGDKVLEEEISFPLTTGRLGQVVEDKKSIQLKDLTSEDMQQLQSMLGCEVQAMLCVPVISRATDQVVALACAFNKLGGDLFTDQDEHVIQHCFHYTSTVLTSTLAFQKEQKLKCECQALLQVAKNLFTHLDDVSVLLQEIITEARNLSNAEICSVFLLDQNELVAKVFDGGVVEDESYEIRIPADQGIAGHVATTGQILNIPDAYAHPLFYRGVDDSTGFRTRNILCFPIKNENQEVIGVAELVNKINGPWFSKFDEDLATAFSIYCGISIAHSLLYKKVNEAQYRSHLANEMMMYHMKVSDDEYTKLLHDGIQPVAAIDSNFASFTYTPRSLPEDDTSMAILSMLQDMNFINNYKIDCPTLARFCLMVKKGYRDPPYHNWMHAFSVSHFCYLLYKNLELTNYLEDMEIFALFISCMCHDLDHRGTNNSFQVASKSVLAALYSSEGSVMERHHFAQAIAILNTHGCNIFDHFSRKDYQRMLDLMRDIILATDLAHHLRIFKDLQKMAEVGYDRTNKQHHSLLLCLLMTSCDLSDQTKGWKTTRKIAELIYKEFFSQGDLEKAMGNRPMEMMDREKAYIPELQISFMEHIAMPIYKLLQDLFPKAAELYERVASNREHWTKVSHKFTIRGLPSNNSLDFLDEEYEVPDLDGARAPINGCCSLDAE
The assay is described as follows: Inhibition of PDE2, radioenzymatic phosphodiesterase assay.

In another assay the test system is PDE4. Description: Selectivity: inhibition of PDE4, radioenzymatic phosphodiesterase assay. The conditions noted are these: 10 μM test compound; vascular smooth muscle. The procedure: as §1, §5, §3, §4

In general, inhibition refers to how much of the control response was suppressed. In general, IC50 refers to the point on the concentration scale where inhibition reaches its midpoint. A low value points to higher potency. As to `COc1cc2c(cc1OC)N(C)C(=O)CN=C2c1cccc(C(F)(F)F)c1` [Compound 4p, 7,8-dimethoxy-1-methyl-[5-(3-trifluoromethyl)phenyl]-1,3-dihydro-2H-1,4-benzodiazepin-2-one], the inhibition at 10 µM amounted to 58% at PDE3 and 26% at PDE5. In addition, the “PDE1 percentage inhibition at 10 μM” value with PDE1 worked out at 25%. Besides, the IC50 against PDE2 is 1800 nM. In the assay with PDE4, the “PDE4 percentage inhibition at 10 μM” value worked out at 19%.
Turning to `COc1cc2c(c(Br)c1OC)C(c1cccc(C(N)=O)c1)=NCC(=O)N2C` [Compound 5b, 3-(6-bromo-7,8-dimethoxy-1-methyl-2-oxo-2,3-dihydro-1H-1,4-benzodiazepin-5-yl)benzamide], on PDE5, the inhibition at 10 µM turned out to be 21.6%. For the same molecule, inhibition against PDE2 was half-maximal at 2100 nM (IC50).
On to `COc1cc2c(cc1OC)N(C)C(=O)CN=C2c1cccnc1` [Compound 17b, 7,8-dimethoxy-1-methyl-5-(3-pyridyl)-1,3-dihydro-1,4-benzodiazepin-2-one], for which the inhibition at 10 µM at PDE3 is 36%; on PDE5, 14%. Further, the “PDE1 percentage inhibition at 10 μM” value in the assay on PDE1 is recorded as 10%. For the same molecule, the IC50 against PDE2 is 1500 nM. In the assay with PDE4, the “PDE4 percentage inhibition at 10 μM” value was 8%.

The values are drawn from US20060128695A1, “Cyclic nucleotide phosphodiesterase inhibitors, preparation and uses” (NEURO3D, priority 2002, published 2006).
